Test results as given in US6723712B2, “Antiviral agent for use in treatment of cancer” (Institut Gustave Roussy, priority 1999, dated 2004).
Entries after “also recorded” stand apart in the source; their conditions may differ.

What was measured:
[1] = test system: cervical carcinoma xenografts; conditions: cited from earlier work
E6 [2] = test: Immunoblot densitometry of E6 in HEP2 cells; type: cell-based, HPV; conditions: HEP2, Cidofovir 10 μg/ml, scored 1 without Cidofovir
Method: (§1) a2b2 HEP2 (a) and HTB33 (b) cells were cultured in the presence or absence of Cidofovir (10 μg/ml) for 3 and 6 days, and cells were collected in exponential phase, lysed and total protein were immunoblotted with the Ab-1 anti-E7, C1P5 […], and DO7 anti-p53. The blots were stripped and re-probed with a monoclonal β-actin antibody.
(§2) To prepare total proteins, cells lysates were extracted with lysis buffer 50 mM tris, pH 8, 120 mM NaCl, 0,1% SDS, and 0,5% NP-40. The protein concentration in the soluble fraction was determined by using a BioRad protein assay reagent. The viral oncoprotein LMP1 was detected by immunoblotting with a monoclonal anti-LMP1 antibody (clone CS1,CS2,CS3 & CS4 cocktail, RDI). The following antibodies were used: anti-Bcl2 (clone 100 Santa Cruz Biotechnology), anti-Bax (clone B-9, Santa Cruz, anti-E6 (clone CIP5, abcam), anti-E7 (clone Ab-1, oncogene), anti-p53 (clone DO7, Dako). Anti β-actin (clone AC-40, Sigma) was used to control protein loading. Autoradiograms of the Western blot were scanned with the Gil doc 1000 image scanner (Bio-rad, Hercules, Calif.) and densitometric analysis of the bands was performed using the molecular analyst software program (Bio-rad, Hercules, Calif.).

p53 [3] = test: Immunoblot densitometry of p53 in HEP2 cells; type: cell-based, human; conditions: HEP2, Cidofovir 10 μg/ml, scored 1 without Cidofovir
Method: as §1, §2

[4] = test system: cell lines derived from human cervical carcinoma; conditions: cited from earlier work
C15 tumors = test: Apoptosis assay (FACS, propidium iodide) in C15; type: in vivo, human; conditions: C15, Cidofovir combined with irradiation
Method: (§3) a, RAJI cells were cultured in the presence of Cidofovir (5 and 10 μg/ml) and irrediated […] with 3 Gy and then assayed for apoptosis by FACS analysis. C15 tumors were injected intra-tumorally for 5 days with Cidofovir ([…]) and received 7 Gy on day 3 and 5. Animals were sacrified on day 7 and tumors were dissected and prepared for FACS analysis of propidium-iodide nuclei staining as described above.
(§4) The cell cycle distribution was estimated by staining ethanol-fixed cells with propidium iodide and monitoring by FACScan flow cytometer (Becton Dickinson) using cellQuest software. Briefly, 1×10^6 cells were cultured without or with 5 and 10 μg/ml of Cidofovir, 24 hours later cells were irradiated with 3 and 6 Gy and collected 12 and 24 hours after irradiation. The percentage of apoptotic cells was determined by sub-G1 peak.

E7 = test: Immunoblot of E7 in HPV+ HTB33 and HEP2 cells; type: cell-based; conditions: HPV+ cells exposed to Cidofovir 10 μg/ml
Method: as §1, §2

[5] = test system: non-virally induced tumors; test: Tumor growth of non-virally induced human xenografts in nude mice; type: in vivo; conditions: cidofovir intra-tumor 60 mg/kg daily 5 days + irradiation 7 Gy on day 3 and 5
Method: (§5) In vivo data are reported as the percentage of original (day 0) tumor volume and plotted as fractional tumor volume±S.E. Statistical significance was determined by Kruskal/Wallis and Mann-Withney U tests.
(§6) Female Swiss nu/nu mice were housed throughout experiments in sterile isolators and fed ad libitum with irradiated food (UAR, Villemoisson/Orge, France) and filtered water. Experiments were performed according to the regulation n°86/609/CEE of the European Community. Cell lines were established in vivo in Swiss athymic mice by subcutaneous injection in the right flank of 5×10^6 cells per animal and subsequently maintained in vivo by sequential passages in animals aged 6 to 8 weeks. Nude mice bearing 500-1000 mm3 tumors were used for in vivo experiments. Two types of control were used including both injection of PBS (intra-tumor and intravenous (IV)), irradiation alone, or chemotherapy alone.
Irradiation of cells was performed using a ^137Cs γ-rays source at a dose rate of 1.45 Gy.min^−1. […] Quantification of radiosensitivity was obtained by the surviving fraction at 2 Gy (SF2). Cell survival was also assessed by using proliferation tests (incorporation of tritiated thymidine and MTT). […]
The example presented herewith also relates to the combination of cidofovir with irradiation which was evaluated in vivo in various human viral-associated and also in non viral associated human cancers. […]

LMP-1 [6] = test: Immunoblot of LMP-1 in C15 tumors; type: in vivo, EBV; conditions: intra-tumoral Cidofovir 50 mg/kg/day for 5 days, day 7
Method: as §3
(§7) b, RAJI cells were cultured in the presence or absence of Ciodofovir (10 μg/ml). At 48 hrs, cells were harvested and analyzed for the expression of LMP1, bcl-2 and bax by Western-blot. For C15, at day 7 portions of tumors where lysed in RIPA buffer and protein extracts were immunoblotted with anti-LMP-1 antibody. The blot from b was stripped and re-probed with a monoclonal β-actin antibody.
To prepare total proteins, cells lysates were extracted with lysis buffer 50 mM tris, pH 8, 120 mM NaCl, 0,1% SDS, and 0,5% NP-40. The protein concentration in the soluble fraction was determined by using a BioRad protein assay reagent. The viral oncoprotein LMP1 was detected by immunoblotting with a monoclonal anti-LMP1 antibody (clone CS1,CS2,CS3 & CS4 cocktail, RDI). […]

human cancer cells = test: Combination with chemotherapeutic drugs, tumor cell growth; type: cell-based; conditions: in vitro
Method: Similar experiments combining a nucleoside analogue with cytotoxic agents other than irradiation were performed (chemotherapeutic drugs, cytokines). The example presented herewith relates to the combination of cidofovir with chemotherapeutic drugs which was evaluated in vitro and in vivo in various virus-associated and non virus-associated human cancers.

HPV+ tumors = test: Histological sections of HPV+ tumors; type: in vivo, mice; conditions: Cidofovir combined with irradiation, 2 HPV+ models (data not shown)
Description: At 10 day after treatment, mice with HPV+ tumors from all groups were sacrified and tumors were excised and fixed in 10% neutral buffered formalin (NBF). The sections from each group were heamatoxylin and eosin (H&E)-stained for histological analysis.

EBV and HPV cancer cells = test: Radiation-induced DNA repair by Fluorescence In Situ Hybridization (FISH); type: cell-based, human; conditions: FISH (data not shown)
Description: Cidofovir is a potent inhibitor of the replication of EBV and HPV in cell culture. In addition, the incorporation into the cellular DNA of the infected cell may disrupt the genomic integrity and enhance susceptibility to apoptosis or necrosis.

Bax = test: Western blot of Bax in EBV+ cells; type: cell-based, human; conditions: Cidofovir 10 μg/ml, 48 hrs
Method: as §7, §2

[7] = test system: EBV+ and HPV+ cell lines (C15, Raji, HTB33, HEP2); test: Clonogenic survival and proliferation test with irradiation, EBV+ and HPV+ cell lines; type: cell-based, human; conditions: cidofovir 1 to 10 μg/ml combined with irradiation, virus-related cells
Method: (§8) Irradiation of cells was performed using a ^137Cs γ-rays source at a dose rate of 1.45 Gy.min^−1. Briefly survival curves were obtained by irradiating cells (0 to 6 Gy). The linear-quadratic model was used for fitting survival curves. Quantification of radiosensitivity was obtained by the surviving fraction at 2 Gy (SF2). Cell survival was also assessed by using proliferation tests (incorporation of tritiated thymidine and MTT). Irradiation of animals was performed using a 200 kv apparatus.
(§9) It was studied in EBV+ human carcinoma C15 cells, EBV+ lymphoma Raji cells, 2 HPV+ carcinoma HTB33 and HEP2 cells. The effect of the combination was also studied in 3 human cell lines lacking the viral infection namely Ramos (lymphoma) HTB31 and SCC97 (carcinoma) cells.
(§10) For each cell line, several concentrations of cidofovir were used in vitro in combination with irradiation (between 1 and 10 μg/ml). The effect of the combined treatment was evaluated using both a proliferation test and a clonogenic assay for cell survival.

LMP-1 [8] = test: Western blot of LMP-1 in RAJI cells; type: cell-based, EBV
Method: b, RAJI cells were cultured in the presence or absence of Ciodofovir (10 μg/ml). […] For C15, at day 7 portions of tumors where lysed in RIPA buffer and protein extracts were immunoblotted with anti-LMP-1 antibody. The blot from b was stripped and re-probed with a monoclonal β-actin antibody.
as §2

E6 [9] = test: Immunoblot densitometry of E6 in HTB33 cells; type: cell-based, HPV; conditions: HTB33, Cidofovir 10 μg/ml, scored 1 without Cidofovir
Method: as §1, §2

[10] = test system: C15, Raji, HEP2, HTB33 tumor xenografts; test: Tumor growth of virus-positive human xenografts in nude mice; type: in vivo
Method: as §5, §6, §8
The example presented herewith also relates to the combination of cidofovir with irradiation which was evaluated in vivo in various human viral-associated and also in non viral associated human cancers. The effect of cidofovir alone or combined with irradiation was studied in vivo in nude mice bearing 500-1000 mm3 tumor xenografts. The treatment consisted of 60 mg/kg daily of cidofovir intra-tumor injection for 5 days. In the combined group, irradiation (7 Gy) was performed on day 3 and 5 of cidofovir.

[11] = test system: Ramos, HTB31, and SCC97 cells; test: Clonogenic survival and proliferation test with irradiation, non virus-containing cells; type: cell-based, human; conditions: cidofovir 1 to 10 μg/ml combined with irradiation, non virus-related cells
Method: as §8, §9, §10

RAJI cells = test: Apoptosis assay (FACS, sub-G1 peak) in RAJI cells; type: cell-based, human; conditions: Cidofovir 10 μg/ml combined with irradiation (3 and 6 Gy)
Method: as §3, §4

Bcl2 = test: Western blot of Bcl2 in EBV+ cells; type: cell-based, human; conditions: Cidofovir 10 μg/ml, 48 hrs
Method: as §7, §2

p53 [12] = test: Immunoblot densitometry of p53 in HTB33 cells; type: cell-based, human; conditions: HTB33, Cidofovir 10 μg/ml, scored 1 without Cidofovir
Method: as §1, §2

Nc1ccn(C[C@@H](CO)OCP(=O)(O)O)c(=O)n1 [Cidofovir, (S)-1-[3-hydroxy-2-(phosphonomethoxy)propyl]cytosine]
tumor growth ([1]; administered topically or systemically, nontoxic concentrations): no reduction of tumor growth | tumor size ([1]; injected intratumorally, compared to placebo group): statistically significant reduction in tumor size | E6 band density score (E6 [2]; 3 days): 0.7 | E6 band density score (E6 [2]; 6 days): 0.25 | P53 density score (p53 [3]; 3 days): 1.2 | P53 density score (p53 [3]; 6 days): 1.65 | cell proliferation [4]: inhibited in a concentration-dependent and in a time-dependent fashion | apoptosis (C15 tumors): marked increase | expression of the viral oncoprotein E7 (E7): decreased expression | tumor growth [5]: dramatically reduced the growth delay | LMP-1 expression (LMP-1 [6]): marked decrease | effect on tumor cell growth in combination with VP16 (human cancer cells; VP16 5 μg/ml): synergic inhibitory effect | effect on tumor cell growth in combination with cis platinum (human cancer cells; cis platinum 2.5 μg/ml): synergic inhibitory effect | tumor necrosis (histological sections) (HPV+ tumors): increased tumor necrosis | radiation-induced DNA repair at the chromosomal level (EBV and HPV cancer cells): no significant change | Bax expression (Bax): up-regulation | radiosensitization (decrease of SF2, surviving fraction at 2 Gy) [7]: increased cell kill | radiosensitization (decrease of SF2, surviving fraction at 2 Gy) ([7]; listed as cidofovir): pronounced radiosensitization | LMP-1 expression (LMP-1 [8]; 24 hours after exposure (data not shown)): significant inhibition | LMP-1 expression (LMP-1 [8]; RAJI cells, Cidofovir 10 μg/ml, 48 hrs): marked decrease | E6 band density score (E6 [9]; 3 days): 0.67 | E6 band density score (E6 [9]; 6 days): 0.32 | anti-tumor effect, sub-cutaneous versus intra-tumor administration ([10]; C15, sub-cutaneous 50 mg/kg cidofovir in combination with irradiation): anti-tumor effect of the same magnitude | tumor growth delay ([10]; cidofovir alone, 60 mg/kg daily intra-tumor for 5 days): weak growth delay | tumor growth ([10]; cidofovir intra-tumor 60 mg/kg daily 5 days + irradiation 7 Gy on day 3 and 5): dramatically reduced the growth delay; also recorded: major effect on tumor growth | complete remission of tumors ([10]; combined treatment, 30 to 40 days after the treatment): nearly all the tumors were found to be in complete remission | radiosensitization (cell survival) [11]: increased cell kill | radiosensitization (cell survival) ([11]; listed as cidofovir): markedly radiosensitized | apoptosis (RAJI cells): marked increase | Bcl2 expression (Bcl2): downregulation | P53 density score (p53 [12]; 3 days): 2.1 | P53 density score (p53 [12]; 6 days): 3.7
